Target: T1, substance P receptor (Cavia porcellus, UniProt P30547)
T1 construct: The trachea and lung were removed and homogenized in buffer; from tissue; host or cells: guinea pig trachea and lung, crude membrane fraction
Test: 3H-Substance P binding to guinea pig crude lung membrane preparation
Conditions: test compound 1 μg/ml; 3H-substance P 1 nM; crude lung membrane fractions, 4° C., 30 minutes
Description: 1. Binding with ^3 H-P substance receptor
(a) Crude lung membrane preparation
Male Hartly strain guinea pigs were sacrificed by decapitation, The trachea and lung were removed and homogenized in buffer (0.25M sucrose, 50 mM Tris-HCl pH 7.5, 0.1 mM MEDTA) by using Polytoron (Kinematica). The homogenate was centrifuged (1000 x g, 10 min) to remove tissue clumps and the supernatant was centrifuges (14000 x g, 20 min) to yield pellets. The pellets were resuspended in buffer (5 mM Tris-HC1 pH 7.5), homofenized with a teflon homogenizer and centrifuged (14000 x g, 20 min) to yield pellets which were referred to crude membrane fractions. The obtained pallets were stored at -70 ° C. until use.
(b) ^3 H-Substance P binding to preparation membrane
Frozen crude membrane fractions were thawed and resuspended in Medium 1 (50 mM Tris-HC1 pH 7.5, 5 mM MnCl2, 0.02% BSA, 2 μg/ml chymostatin, 4 μg/ml leupeptin, 40 μg/ml bacitaracin). ^3 H-substance P (1 nM ) was incubated with 100 μl of the membrane preparation in Medium 1 at 4° C. for 30 minutes in a final volume of 500 μl. At the end of the incubation over a Whatman GF/B glass filter (pretreated with 0.1% polyethylene imine for 3 hours prior to use) under aspiration. The filters werre then washed four times with 5 ml of the buffer (50 mM Tris-HCl, pH 7.5). The radioactivity was counted in 5 ml of Aquazol-2 in Packerd scintillation counter (Packerd TRI-CARB 4530).

T1 sequence (P30547 whole entry): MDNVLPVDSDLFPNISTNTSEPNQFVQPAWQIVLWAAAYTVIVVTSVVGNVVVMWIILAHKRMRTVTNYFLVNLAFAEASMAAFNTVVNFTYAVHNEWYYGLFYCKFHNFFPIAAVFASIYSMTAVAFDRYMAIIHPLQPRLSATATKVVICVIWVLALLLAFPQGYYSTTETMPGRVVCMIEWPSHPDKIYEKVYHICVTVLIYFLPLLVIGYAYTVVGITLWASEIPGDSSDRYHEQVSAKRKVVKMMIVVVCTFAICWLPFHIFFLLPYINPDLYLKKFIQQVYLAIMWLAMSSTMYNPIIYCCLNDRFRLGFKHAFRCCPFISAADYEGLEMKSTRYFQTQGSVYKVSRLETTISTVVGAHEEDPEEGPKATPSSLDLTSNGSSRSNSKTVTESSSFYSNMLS

Compound	suppression rate (%)
CC(=O)N[C@H](C(=O)N[C@H](Cc1cn(C=O)c2ccccc12)C(=O)N(C)[C@@H](Cc1ccccc1)C(=O)N(C)Cc1ccccc1)[C@@H](C)O [(c)]	96%
CC(=O)N[C@H](C(=O)N[C@H](Cc1cn(C=O)c2ccccc12)C(=O)N1Cc2ccccc2C[C@@H]1C(=O)N(C)Cc1ccccc1)[C@@H](C)O [(b)]	99%
CC(=O)N[C@H](C(=O)N[C@H](Cc1cn(C=O)c2ccccc12)C(=O)N[C@@H](Cc1cccs1)C(=O)N(C)Cc1ccccc1)[C@@H](C)O [(a)]	100%

Source: US5321032A, “Peptide compounds and pharmaceutical compositions thereof” (priority 1990, dated 1994)
